This is an account of results in patent US7560450B2, “Xanthine derivatives, the preparation thereof and their use as pharmaceutical compositions” (Boehringer Ingelheim Pharma GmbH & Co., KG, priority 2002, dated 2009).

pIC50: −log10 of the molar value.

Usually pIC50 stands for −log10 of the IC50, conventionally taken in molar units.

The target of one data set is T1, DPP-IV (Homo sapiens, UniProt P27487).
T1 construct: an extract of human colon carcinoma cell line Caco-2 is used as the DPP IV source; endogenous in cells; host or cells: Caco-2 (human colon carcinoma), differentiated to induce DPP-IV expression; Nonidet-P40 solubilised extract
Description: DPP-IV assay with Caco-2 cell extract as DPP IV source. It counts as biochemical. To be noted: extract of human colon carcinoma cell line Caco-2 as DPP IV source; substrate AFC 100 μM; 60 minutes at ambient temperature; 11 measuring points; read-out: DPP IV inhibition IC50. Here is the method: The differentiation of the cells in order to induce the DPP-IV expression was carried out as described by Reiher et al. in an article entitled “Increased expression of intestinal cell line Caco-2”, which appeared in Proc. Natl. Acad. Sci. Vol. 90, pages 5757-5761 (1993). The cell extract was obtained from cells solubilised in a buffer (10 mM Tris HCl, 0.15 M NaCl, 0.04 t.i.u. aprotinin, 0.5% Nonidet-P40, pH 8.0) by centrifuging at 35,000 g for 30 minutes at 4° C. (to remove cell debris).
The DPP-IV assay was carried out as follows:
50 μl substrate solution (AFC; AFC is amido-4-trifluoromethylcoumarin), final concentration 100 μM, were placed in black microtitre plates. 20 μl of assay buffer (final concentrations 50 mM Tris HCl pH 7.8, 50 mM NaCl, 1% DMSO) was pipetted in. The reaction was started by adding 30 μl of solubilised Caco-2 protein (final concentration 0.14 μg of protein per well). The test substances to be investigated were typically added prediluted in 20 μl, and the volume of assay buffer was then reduced accordingly. The reaction was carried out at ambient temperature, incubating for 60 minutes. Then the fluorescence was measured in a Victor 1420 Multilabel Counter, the excitation wavelength being 405 nm and the emission wavelength being 535 nm. Blank readings (corresponding to 0% activity) were obtained in mixtures without any Caco-2 protein (volume replaced by assay buffer), control values (corresponding to 100% activity) were obtained in mixtures with no substance added. The potency of the test substances in question, expressed as IC50 values, was calculated from dosage/activity curves consisting of 11 measuring points in each case.

The next data set relates to rats. In words: Tolerability after oral administration to rats (behaviour). It counts as in vivo. To be noted: 10 mg/kg.

T1 sequence (P27487 whole entry): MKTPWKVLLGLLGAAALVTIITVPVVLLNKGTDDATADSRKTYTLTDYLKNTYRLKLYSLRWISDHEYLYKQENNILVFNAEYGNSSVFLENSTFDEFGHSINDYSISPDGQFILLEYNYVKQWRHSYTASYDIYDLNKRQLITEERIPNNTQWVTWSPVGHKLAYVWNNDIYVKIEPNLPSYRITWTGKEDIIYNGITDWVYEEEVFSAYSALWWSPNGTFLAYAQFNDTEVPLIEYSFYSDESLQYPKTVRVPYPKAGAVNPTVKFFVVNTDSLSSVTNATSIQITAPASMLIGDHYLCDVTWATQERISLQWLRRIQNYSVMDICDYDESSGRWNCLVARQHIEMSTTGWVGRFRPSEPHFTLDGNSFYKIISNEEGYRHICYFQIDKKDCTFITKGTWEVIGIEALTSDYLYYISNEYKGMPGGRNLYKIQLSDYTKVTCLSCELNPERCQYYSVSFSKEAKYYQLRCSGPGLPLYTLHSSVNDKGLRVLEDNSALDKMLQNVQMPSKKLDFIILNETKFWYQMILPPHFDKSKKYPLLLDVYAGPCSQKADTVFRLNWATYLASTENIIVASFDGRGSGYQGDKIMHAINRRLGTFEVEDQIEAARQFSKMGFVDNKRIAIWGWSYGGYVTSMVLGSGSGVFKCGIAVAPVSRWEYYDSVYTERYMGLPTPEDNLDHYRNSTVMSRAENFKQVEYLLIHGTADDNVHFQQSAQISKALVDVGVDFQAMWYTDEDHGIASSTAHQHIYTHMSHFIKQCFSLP

Consider `CC#CCn1c(N2CCC[C@@H](N)C2)nc2c1c(=O)n(CC(=O)NCc1ccccc1)c(=O)n2C` [1(1), 1-[(benzylaminocarbonyl)methyl]-3-methyl-7-(2-butyn-1-yl)-8-[(R)-3-amino-piperidin-1-yl]-xanthine], for which, on DPP-IV, the pIC50 is 7.34.
Still for that read-out and setting: the figure for `CC#CCn1c(N2CCC[C@@H](N)C2)nc2c1c(=O)n(CC(=O)Nc1ccccc1)c(=O)n2C` [1(2), 1-[(phenylaminocarbonyl)methyl]-3-methyl-7-(2-butyn-1-yl)-8-[(R)-3-amino-piperidin-1-yl]-xanthine] is 7.59; for `CC#CCn1c(N2CCC[C@@H](N)C2)nc2c1c(=O)n(CC(=O)OCc1cccnc1)c(=O)n2C` [1(4), 1-{[(pyridin-3-yl)methoxycarbonyl]methyl}-3-methyl-7-(2-butyn-1-yl)-8-[(R)-3-amino-piperidin-1-yl]-xanthine] it is 7.89; for `CC#CCn1c(N2CCC[C@@H](N)C2)nc2c1c(=O)n(CC(=O)Nc1cccnc1)c(=O)n2C` [1(5), 1-{[(pyridin-3-yl)aminocarbonyl]methyl}-3-methyl-7-(2-butyn-1-yl)-8-[(R)-3-amino-piperidin-1-yl]-xanthine] it is 8.15.
Same read-out and setting: then `CC#CCn1c(N2CCC[C@@H](N)C2)nc2c1c(=O)n(CC(=O)Nc1ccccc1C)c(=O)n2C` [1(6), 1-{[(2-methyl-phenyl)aminocarbonyl]methyl}-3-methyl-7-(2-butyn-1-yl)-8-[(R)-3-amino-piperidin-1-yl]-xanthine], with 6.14.
Still for that read-out and setting: the figure for `CC#CCn1c(N2CCC[C@@H](N)C2)nc2c1c(=O)n(CC(=O)Nc1ccccc1[N+](=O)[O-])c(=O)n2C` [1(7), 1-{[(2-nitro-phenyl)aminocarbonyl]methyl}-3-methyl-7-(2-butyn-1-yl)-8-[(R)-3-amino-piperidin-1-yl]-xanthine] is 8.40; for `CC#CCn1c(N2CCCC(N)C2)nc2c1c(=O)n(CC(=O)Nc1ccc(C#N)cc1)c(=O)n2C` (stereo not shown) [1(8), 1-{[(4-cyano-phenyl)aminocarbonyl]methyl}-3-methyl-7-(2-butyn-1-yl)-8-(3-amino-piperidin-1-yl)-xanthine] it is 7.38; for `CC#CCn1c(N2CCC[C@@H](N)C2)nc2c1c(=O)n(CC(=O)Nc1ccccc1OC)c(=O)n2C` [1(9), 1-{[(2-methoxy-phenyl)aminocarbonyl]methyl}-3-methyl-7-(2-butyn-1-yl)-8-[(R)-3-amino-piperidin-1-yl]-xanthine] it is 7.49.
As for `CC#CCn1c(N2CCCC(N)C2)nc2c1c(=O)n(CC(=O)COc1ccccc1)c(=O)n2C` (stereo not shown) [1(10), 1-(2-oxo-3-phenoxy-propyl)-3-methyl-7-(2-butyn-1-yl)-8-(3-amino-piperidin-1-yl)-xanthine], the pIC50 on DPP-IV was 6.54.
The same measure, in the same setting: the figure for `CC#CCn1c(N2CCCC(N)C2)nc2c1c(=O)n(CC(=O)NCc1ccccc1N)c(=O)n2C` (stereo not shown) [1(11), 1-[(2-amino-benzylaminocarbonyl)methyl]-3-methyl-7-(2-butyn-1-yl)-8-(3-amino-piperidin-1-yl)-xanthine] is 7.55.
For `CC#CCn1c(N2CCC[C@@H](N)C2)nc2c1c(=O)n(CC(=O)Nc1ccccn1)c(=O)n2C` [Example 1(3), 1-{[(pyridin-2-yl)aminocarbonyl]methyl}-3-methyl-7-(2-butyn-1-yl)-8-[(R)-3-amino-piperidin-1-yl]-xanthine], the “changes in the animals' behaviour” value in the data set on rats was “no changes in the animals' behaviour could be detected”. Moreover, the pIC50 on DPP-IV was 8.40.
As for `CC#CCn1c(N2CCC[C@@H](N)C2)nc2c1c(=O)n(CC(=O)OCc1ccccc1)c(=O)n2C` [Example 1, 1-[(benzyloxycarbonyl)methyl]-3-methyl-7-(2-butyn-1-yl)-8-[(R)-3-amino-piperidin-1-yl]-xanthine], the pIC50 on DPP-IV was 7.57.
